From patent US7098245B2, “Polynucleotide cleavage agent switched on by photo irradiation” (Tottori University, priority 2002, dated 2006)

Tests used:
[1] = test system: φX174 RFI DNA; assay: DNA cleavage test under photo-irradiation (UV-A lamp 365 nm, 3 h), agarose gel electrophoresis; format: biochemical; conditions: 4 cm, 10 mM sodium phosphate pH 7.0, samples 1, 5, 12 mM, 1 ┌L
Procedure: (§1) DNA cleavage test using (S,S)—NH2-mono under photo-irradiation φX174 RFI DNA (New England BioLabs, N3021S, 150 ┌M) (1 ┌L) was dissolved in a 10 mM sodium phosphate buffer pH 7.0 (9 ┌L) in a micro tube.
(§2) Ethyl 9-anthracene carboxylate (anth-OEt) was used as a control compound. Three samples were prepared: a buffer solution of DNA, a mixture of anth-OEt with a buffer solution of DNA, and a mixture of (S,S)—NH2-mono with a buffer solution of DNA. These samples were placed under a UV-A lamp (max=365 nm, trans illuminator) at a distance of 4 cm, and irradiated for 3 h. The resulting mixture was subjected to an electrophoresis experiment ([…], TAE buffer, 100 V, 30 min). The resulting agarose gel was stained with ethidium bromide (EtBr), visualized by UV-B lamp and the DNA cleavage ratio was determined by NIH Image 1.62.
The increased ratio of nicked DNA means that DNA was cleaved by the experimental conditions.

[2] = test system: supercoiled φX174 DNA; assay: DNA cleavage test using (R,R)- and (S,S)-11 (Xe lamp, 45 min); format: biochemical
Procedure: The reaction was carried out in a solvent of 20 mM sodium phosphate of pH 7.0 and 20% DMSO. Samples were irradiated for 45 min at a distance of 6 cm using Xe lamp using polystylene filter. Electrophoresis (0.8% agarose gel, TAE buffer, 100 V, 40 min). Gel was stained by EtBr and visualized by UV-B lamp (transillumnator).

[3] = test system: supercoiled φX-174 DNA; assay: DNA cleavage test under photo-irradiation (Xe lamp with polystylene filter, 2 hrs); format: biochemical
Procedure: as §1, §2
The test was carried out using (R,R)— and (S,S)—NH2-mono in the same manner as described in Example 2 except that the test samples were placed under a Xe lamp with a polystylene filter at a distance of 3 cm and irradiated for 2 hrs.

[4] = Stability of the compound (sunlight in solution; after deprotection); format: physicochemical
Procedure: Part G. A solution of ester 5 (14.6 mg, 0.0307 mmol) in methanol (0.3 mL) was stirred at rt in the presence of Pd/C (3.0 mg, 20 wt %) under H2 (1 atm) for 15 h in the dark. The crude products were filtered through a sintered glass filter with a Celite pad, and the filtrate was dried under vacuo to afford the title compound (S,S)—NH2-mono(9.2 mg, 0.027 mmol) in 88% yield. This compound was unstable when dissolved in methanol or CHCl3 under the irradiation of sunlight; therefore, it should be kept under an argon atmosphere in a dark place.
The reaction was carried out in a flask that was covered by aluminum foil to keep out light. A solution of (R,R)-10 (18 mg, 0.038 mmol) in methanol (1.0 mL) was stirred at rt in the presence of Pd/C (5.4 mg, 30 wt %) under H2 (1 atom) for 5 days and filtered though a glass sintered glass filter with a Celite pad. The filtrate was evaporated under reduced pressure to give (R,R)—NH2-mono (9.9 mg, […]). This compound was unstable when dissolved in methanol or CHCl3 under the irradiation of sunlight; therefore, it should be kept under an argon atmosphere in a dark place.

[5] = test system: DNA; conditions: background, symposium report 2001; cited from earlier work
[6] = Xe lamp, polystylene filter, 3 cm, 2 hrs

SMILES | DNA cleavage activity [1] | concentration required to convert supercoiled DNA to the nicked type DNA [3, 6] | stability after deprotection of the amino protecting group [4] | stability when dissolved in methanol or CHCl3 under irradiation of sunlight [4] | other results
CCOC(=O)c1c2ccccc2cc2ccccc12 [anth-OEt, Ethyl 9-anthracene carboxylate, reference compound] | no significant activity |  |  |  | 
O=C(NC[C@H]1[C@H](CO)C1(F)F)c1c2ccccc2cc2ccccc12 [(R,R)-11, (R,R)-2,2-difluoro-3-hydroxymethyl-cyclopropylmethyl anthracene-9-carboxamide] |  |  |  |  | equivalent versus the DNA base pair at that concentration ([2]; 20 mM sodium phosphate pH 7.0, 20% DMSO): 1.3 equivalent; concentration at which supercoiled DNA was converted to the nicked form ([2]; 20 mM sodium phosphate pH 7.0, 20% DMSO, 6 cm): 100 µM; DNA cleavage activity (qualitative) ([2]; FIG. 5): strong DNA cleavage activity
NC[C@H]1[C@H](COC(=O)c2c3ccccc3cc3ccccc23)C1(F)F [(R,R)—NH2-mono, (R,R)-3-aminomethyl-2,2-difluoro-cyclopropylmethyl anthracene-9-carboxylate] |  | 85.5 µM | unstable | unstable | DNA cleavage strength relative to the (S,S)-isomer ([3]; Xe lamp, 2 hrs): more than 10 times; equivalent versus supercoiled φX-174 DNA at the required concentration [3, 6]: 0.667 equivalent; activity relative to the corresponding (S,S)-isomer (description) ([3]; stated in detailed description): five times stronger activity
NC[C@@H]1[C@@H](COC(=O)c2c3ccccc3cc3ccccc23)C1(F)F [(S,S)—NH2-mono, (S,S)-3-aminomethyl-2,2-difluoro-cyclopropylmethyl anthracene-9-carboxylate] | weak DNA cleavage agent | 1200 µM | unstable | unstable | 
O=C(OCC1C(COC(=O)c2c3ccccc3cc3ccccc23)C1(F)F)c1c2ccccc2cc2ccccc12 (stereo not drawn) [9-anthracene carboxylic diester of 1,3-bishydroxymethyl-2,2-difluoro-cyclopropane] |  |  |  |  | DNA cleavage activity [5]: no significant DNA cleavage activity
